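Cells were grown in 96-well plates and exposed to each compound for 48 hours at five concentrations; endpoints were interpolated linearly between bracketing concentrations, or set to the highest concentration if not reached. At the GI50, growth is halved.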 The source made the active and inactive calls. No stated cut-off is given here; in the data, active = GI50 up to about 1.1 µM and inactive = higher. Where a SMILES comes first, the peptide text is derived from it. The star is where a group is joined. Boc = CC(C)(C)OC(=O)*; OBn = c1ccc(CO*)cc1
Tests used:
Test in all cases: inhibition of tumour cell growth, NCI panel, 48 h
ACHN = tested on: ACHN
HL-60 = tested on: HL-60
HOP-62 = tested on: HOP-62
HT-29 = tested on: HT-29
KM12 = tested on: KM12
MOLT-4 = tested on: MOLT-4
Malme-3M = tested on: Malme-3M
NCI-H23 = tested on: NCI-H23
NCI-H460 = tested on: NCI-H460
SK-MEL-2 = tested on: SK-MEL-2
SR = tested on: SR
U-251 = tested on: U-251
UACC-257 = tested on: UACC-257
A498 = tested on: A498
CAKI-1 = tested on: CAKI-1
MCF7 = tested on: MCF7
MDA-MB-231 = tested on: MDA-MB-231
NCI/ADR-RES = tested on: NCI/ADR-RES
T47D = tested on: T47D

Structure (SMILES)	GI50 (ACHN)	GI50 (HL-60)	GI50 (HOP-62)	GI50 (HT-29)	GI50 (KM12)	GI50 (MOLT-4)	GI50 (Malme-3M)	GI50 (NCI-H23)	GI50 (NCI-H460)	GI50 (SK-MEL-2)	GI50 (SR)	GI50 (U-251)	GI50 (UACC-257)	GI50 (A498)	GI50 (CAKI-1)	GI50 (MCF7)	GI50 (MDA-MB-231)	GI50 (NCI/ADR-RES)	GI50 (T47D)
[O-]c1c2c(nn1-c1ccccc1)c1ccccc1c[n+]2Cc1ccccc1	> 100 µM (inactive)	> 100 µM (inactive)	> 100 µM (inactive)	> 100 µM (inactive)	> 100 µM (inactive)	> 100 µM (inactive)	> 100 µM (inactive)	> 100 µM (inactive)	> 100 µM (inactive)	> 100 µM (inactive)	> 100 µM (inactive)	> 100 µM (inactive)	> 100 µM (inactive)						
Oc1c(C(Nc2cccc3cccnc23)c2ccccc2)ccc2cccnc12 (centres undefined)	3.91 µM (inactive)	2.2 µM (inactive)	9.64 µM (inactive)		7.41 µM (inactive)	1.9 µM (inactive)	3.49 µM (inactive)	5.43 µM (inactive)	3.33 µM (inactive)		2.61 µM (inactive)		4.38 µM (inactive)	22.6 µM (inactive)	5.6 µM (inactive)				
C[N+]1(CCNP(=S)(NCC[N+]2(C)Cc3c(ccc4c3OCO4)C3C2c2cc4c(cc2C[C@@H]3O)OCO4)NCC[N+]2(C)Cc3c(ccc4c3OCO4)C3C2c2cc4c(cc2C[C@@H]3O)OCO4)Cc2c(ccc3c2OCO3)C2C1c1cc3c(cc1C[C@H]2O)OCO3 (some centres undefined)	< 0.00191 µM (active)	< 0.00191 µM (active)	< 0.00191 µM (active)	< 0.00191 µM (active)	< 0.00191 µM (active)		< 0.00191 µM (active)	< 0.00191 µM (active)	< 0.00191 µM (active)	< 0.00191 µM (active)	< 0.00191 µM (active)	< 0.00191 µM (active)	< 0.00191 µM (active)	< 0.00191 µM (active)	13.2 µM (inactive)				
N#C/C(=C/NC(N)=S)C(N)=O	> 100 µM (inactive)	> 100 µM (inactive)	> 100 µM (inactive)	> 100 µM (inactive)	> 100 µM (inactive)			> 100 µM (inactive)	> 100 µM (inactive)	> 100 µM (inactive)		> 100 µM (inactive)	> 100 µM (inactive)	> 100 µM (inactive)	> 100 µM (inactive)	> 100 µM (inactive)	> 100 µM (inactive)	> 100 µM (inactive)	> 100 µM (inactive)
CC1(C)C2CCC(N)(C2)C1O (centres undefined)	> 100 µM (inactive)	> 10 µM (inactive)	> 100 µM (inactive)		> 100 µM (inactive)	> 100 µM (inactive)		> 100 µM (inactive)	> 100 µM (inactive)	> 100 µM (inactive)	> 100 µM (inactive)	> 100 µM (inactive)	> 100 µM (inactive)	> 100 µM (inactive)	> 100 µM (inactive)	> 100 µM (inactive)		> 100 µM (inactive)	> 100 µM (inactive)
CC(N)Cc1cccc(C(F)(F)F)c1 (centres undefined)	> 100 µM (inactive)	> 100 µM (inactive)	> 100 µM (inactive)	> 100 µM (inactive)	> 100 µM (inactive)		> 100 µM (inactive)	> 100 µM (inactive)	> 100 µM (inactive)	> 100 µM (inactive)	> 100 µM (inactive)	> 100 µM (inactive)	> 100 µM (inactive)	> 100 µM (inactive)	> 100 µM (inactive)				
O=C1Nc2ccccc2[C@]12C[C@H]2c1ccccn1	> 100 µM (inactive)		> 100 µM (inactive)		> 100 µM (inactive)	> 100 µM (inactive)	> 100 µM (inactive)	> 100 µM (inactive)	> 100 µM (inactive)	> 100 µM (inactive)		> 100 µM (inactive)	> 100 µM (inactive)	> 100 µM (inactive)	> 100 µM (inactive)	> 100 µM (inactive)	> 100 µM (inactive)	> 100 µM (inactive)	> 100 µM (inactive)
CN(C)CCNC(=O)c1cccc2c(Nc3ccc(S(N)(=O)=O)cc3)c3ccccc3nc12	1.47 µM (inactive)	0.228 µM (active)	3.1 µM (inactive)	1.26 µM (inactive)	1.72 µM (inactive)	0.0632 µM (active)	1.49 µM (inactive)	1.73 µM (inactive)	0.337 µM (active)	1.59 µM (inactive)	0.0551 µM (active)	1.02 µM (active)	2.96 µM (inactive)	1.69 µM (inactive)	3.25 µM (inactive)				
COc1ccc(CNc2nc3ccc(C(F)(F)F)cc3nc2-c2ccccc2)cc1OC	27.7 µM (inactive)	6.98 µM (inactive)	> 100 µM (inactive)	61.5 µM (inactive)		6.71 µM (inactive)	73.5 µM (inactive)	78.7 µM (inactive)	21.2 µM (inactive)	> 100 µM (inactive)	6.64 µM (inactive)	> 100 µM (inactive)	25.2 µM (inactive)						
c1c[nH]c(-c2cccc3nsnc23)c1	71.9 µM (inactive)		30.7 µM (inactive)	53.3 µM (inactive)	30.8 µM (inactive)	40.7 µM (inactive)	> 100 µM (inactive)	> 100 µM (inactive)	65.2 µM (inactive)	> 100 µM (inactive)	25.1 µM (inactive)	> 100 µM (inactive)	> 100 µM (inactive)	61.7 µM (inactive)	43.5 µM (inactive)	6.7 µM (inactive)	99.3 µM (inactive)	> 100 µM (inactive)	3.78 µM (inactive)
CCCCCCCCCCCCCCCCCC(CCCCCCCCCCCCCCCCC)OP(=O)(O)O	> 100 µM (inactive)	> 100 µM (inactive)		> 100 µM (inactive)	> 100 µM (inactive)	> 100 µM (inactive)	> 100 µM (inactive)	> 100 µM (inactive)	> 100 µM (inactive)	> 100 µM (inactive)	42.9 µM (inactive)	> 100 µM (inactive)	> 100 µM (inactive)	> 100 µM (inactive)	> 100 µM (inactive)				
Cc1ccc(NC(=O)CCc2cc(C(C)(C)C)nc(S)n2)cc1C	> 100 µM (inactive)	> 100 µM (inactive)	> 100 µM (inactive)	> 100 µM (inactive)	> 100 µM (inactive)	> 100 µM (inactive)	> 100 µM (inactive)	> 100 µM (inactive)	> 100 µM (inactive)	> 100 µM (inactive)	> 100 µM (inactive)	> 100 µM (inactive)	> 100 µM (inactive)	> 100 µM (inactive)	> 100 µM (inactive)				
CC(C)CC(NC(=O)C(C)(CI)Cc1ccccc1)C(=O)Nc1ccccc1 (centres undefined)	> 100 µM (inactive)	33.2 µM (inactive)			> 100 µM (inactive)	56.1 µM (inactive)	> 100 µM (inactive)	> 100 µM (inactive)	> 100 µM (inactive)	> 100 µM (inactive)	22.1 µM (inactive)	> 100 µM (inactive)	> 100 µM (inactive)	> 100 µM (inactive)	> 100 µM (inactive)	> 100 µM (inactive)	> 100 µM (inactive)	> 100 µM (inactive)	
Cc1cc(NCCCCCCNc2cc(C)nc3cc(N(C)C)ccc23)c2ccc(N(C)C)cc2n1	99.8 µM (inactive)	3.19 µM (inactive)	54.2 µM (inactive)	36.1 µM (inactive)	11.8 µM (inactive)	6.9 µM (inactive)	13.2 µM (inactive)	25.1 µM (inactive)	13.3 µM (inactive)	32.2 µM (inactive)	11 µM (inactive)	28.2 µM (inactive)	31.6 µM (inactive)	> 100 µM (inactive)	55.8 µM (inactive)				
COC(=O)c1cc2ccccc2c2nc3ccccc3c(Cl)c12	> 100 µM (inactive)	> 100 µM (inactive)	> 100 µM (inactive)	> 100 µM (inactive)	> 100 µM (inactive)	> 100 µM (inactive)	> 100 µM (inactive)	> 100 µM (inactive)		> 100 µM (inactive)	51.8 µM (inactive)	> 100 µM (inactive)	> 100 µM (inactive)	> 100 µM (inactive)	> 100 µM (inactive)				
CC1=CC[C@@H](C(C)(C)O)C[C@@H]1O	> 5000 µM (inactive)	3940 µM (inactive)	> 5000 µM (inactive)	> 5000 µM (inactive)	> 5000 µM (inactive)	> 5000 µM (inactive)	> 5000 µM (inactive)	> 5000 µM (inactive)	> 5000 µM (inactive)	> 5000 µM (inactive)	> 5000 µM (inactive)	> 5000 µM (inactive)	> 5000 µM (inactive)	> 5000 µM (inactive)					
Cc1ccc2c(c1)c(=O)c1c(NCCN(C)C)ccc3nnn2c31	3.06 µM (inactive)	2.1 µM (inactive)	3.59 µM (inactive)	1.47 µM (inactive)	2.45 µM (inactive)	0.605 µM (active)	3.82 µM (inactive)	3.6 µM (inactive)	2.67 µM (inactive)	8.04 µM (inactive)	1.22 µM (inactive)	4.23 µM (inactive)	3.6 µM (inactive)	4.88 µM (inactive)	2.02 µM (inactive)				
CC(C)CC(NC(=O)OC(C)(C)C)C(=O)N1CCCC1C(=O)OCc1ccccc1 (stereo not drawn) (Boc-Leu-Pro-OBn; configuration not given here)	> 100 µM (inactive)			41.4 µM (inactive)	> 100 µM (inactive)		> 100 µM (inactive)	> 100 µM (inactive)		> 100 µM (inactive)	15.3 µM (inactive)	> 100 µM (inactive)	> 100 µM (inactive)	> 100 µM (inactive)	> 100 µM (inactive)	67.8 µM (inactive)	> 100 µM (inactive)	> 100 µM (inactive)	> 100 µM (inactive)
